Key:
Type in all cases: in vivo
BCR-FMS BaF3 cells = test: Splenomegaly mouse model, BCR-FMS BaF3 cells
In short: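 Female nu/nu mice given 5×10^6 engineered BaF3 cells i.v. on day 1; compound in 1.0% Polysorbate 80/0.5% HPMC/2.5% DMSO dosed orally once (sometimes twice) daily, days 10-18. Spleens weighed 4 h after final dose; % spleen growth inhibition calculated versus vehicle control.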

BCR-TRK1 BaF3 cells = test: Splenomegaly mouse model, BCR-TRK1 BaF3 cells
Method: BaF3 cells are engineered with any of BCR-FMS, BCR-TRK1 or BCR-TRK2 to assess in vivo inhibitory effects of Fms, TrkA or TrkB inhibition, respectively. BaF3 cells are maintained in growth media (RPMI containing 10% FBS, 1% PenStrep, 1% NEAA, and 1% L-Glutamine, supplemented with 5% murine IL-3 and 1 mg/mL G418). Four days prior to start, 2×10^6 cells are inoculated into a T150 vented flask using the growth media and incubated at 37° C. in 5% CO2 for three days. One day prior to start, cells are collected by centrifugation and are suspended in growth media without IL-3. On the day of cell implant, the cells are collected by centrifugation, rinsed 3×20 mL with RPMI, then are suspended in 5.4 mL of media and counted, then adjusted with additional RPMI as needed to give 5×10^7 cells/mL. On day 1, female nu/nu mice at 5-6 weeks of age are injected intravenously with BaF3 cells injected injecting 0.1 mL (5×10^6) cells in the tail vein (mice without cell injected are included as control group). Compound stocks in dimethylsulfoxide are stored at room temperature protected from light. Stocks are diluted prior to dosing, diluting 22 μL of compound stock into 858 μL of diluent (or 50 μL into 1950 μL) to provide vehicle of 1.0% Polysorbate 80, 0.5% hydroxypropyl methyl cellulose, with final dimethylsulfoxide at 2.5% in all dosing suspensions and vehicle control. Dosing suspension is prepared prior to use, mixing by inversion and sonication in a water bath to make a uniform suspension. On days 10-18, mice are treated with vehicle only or the desired level of compound in vehicle, ˜0.2 mL per 25 gm mouse, once a day by oral gavage, or in some instances, twice per day. On day 18, mice are administered a final dose and two hours later a plasma sample is taken. At four hours following the final dose, mice are sacrificed, an additional plasma sample is collected and mouse spleens are removed and weighed. […] Percent spleen growth inhibition is calculated as 100×[(spleen weight vehicle control-spleen weight test compound)/spleen weight vehicle control]. […]

BCR-TRK2 BaF3 cells = test: Splenomegaly mouse model, BCR-TRK2 BaF3 cells
Method: BaF3 cells are engineered with any of BCR-FMS, BCR-TRK1 or BCR-TRK2 to assess in vivo inhibitory effects of Fms, TrkA or TrkB inhibition, respectively. BaF3 cells are maintained in growth media (RPMI containing 10% FBS, 1% PenStrep, 1% NEAA, and 1% L-Glutamine, supplemented with 5% murine IL-3 and 1 mg/mL G418). Four days prior to start, 2×10^6 cells are inoculated into a T150 vented flask using the growth media and incubated at 37° C. in 5% CO2 for three days. One day prior to start, cells are collected by centrifugation and are suspended in growth media without IL-3. On the day of cell implant, the cells are collected by centrifugation, rinsed 3×20 mL with RPMI, then are suspended in 5.4 mL of media and counted, then adjusted with additional RPMI as needed to give 5×10^7 cells/mL. On day 1, female nu/nu mice at 5-6 weeks of age are injected intravenously with BaF3 cells injected injecting 0.1 mL (5×10^6) cells in the tail vein (mice without cell injected are included as control group). Compound stocks in dimethylsulfoxide are stored at room temperature protected from light. Stocks are diluted prior to dosing, diluting 22 μL of compound stock into 858 μL of diluent (or 50 μL into 1950 μL) to provide vehicle of 1.0% Polysorbate 80, 0.5% hydroxypropyl methyl cellulose, with final dimethylsulfoxide at 2.5% in all dosing suspensions and vehicle control. Dosing suspension is prepared prior to use, mixing by inversion and sonication in a water bath to make a uniform suspension. On days 10-18, mice are treated with vehicle only or the desired level of compound in vehicle, ˜0.2 mL per 25 gm mouse, once a day by oral gavage, or in some instances, twice per day. On day 18, mice are administered a final dose and two hours later a plasma sample is taken. At four hours following the final dose, mice are sacrificed, an additional plasma sample is collected and mouse spleens are removed and weighed. The average spleen weight of vehicle control group mice is compared to the average spleen weight of the test compound mice. Percent spleen growth inhibition is calculated as 100×[(spleen weight vehicle control-spleen weight test compound)/spleen weight vehicle control]. In some instances, the compounds were not tested in all of the assays as indicated by NA in the table below.

[1] = dosed once per day at 10 mg per kg

Row | SMILES | % spleen growth inhibition, Fms (BCR-FMS BaF3 cells; dosed at 30 mg/kg) [%] | % spleen growth inhibition, Fms (BCR-FMS BaF3 cells; [1]) [%] | % spleen growth inhibition, TrkA (BCR-TRK1 BaF3 cells; dosed at 30 mg/kg) [%] | % spleen growth inhibition, TrkA (BCR-TRK1 BaF3 cells; [1]) [%] | % spleen growth inhibition, TrkB (BCR-TRK2 BaF3 cells; dosed at 30 mg/kg) [%] | % spleen growth inhibition, TrkB (BCR-TRK2 BaF3 cells; [1]) [%]
1 | COc1ncnc2[nH]cc(Cc3ccc(Nc4ccc(C5CC5)nc4)nc3F)c12 [Compound P-4004, (6-Cyclopropyl-pyridin-3-yl)-[6-fluoro-5-(4-methoxy-7H-pyrrolo[2,3-d]pyrimidin-5-ylmethyl)-pyridin-2-yl]-amine] | 70 | 36 | 40 | 16 | 91 | 41
2 | CCOc1ccc(Nc2ccc(Cc3c[nH]c4ncnc(OC)c34)c(F)n2)cn1 [Compound P-4005, (6-Ethoxy-pyridin-3-yl)-[6-fluoro-5-(4-methoxy-7H-pyrrolo[2,3-d]pyrimidin-5-ylmethyl)-pyridin-2-yl]-amine] |  | 65 |  | 25 |  | 35

Source: patent publication US8901118B2, “Compounds and methods for kinase modulation, and indications therefor” (Plexxikon Inc., priority 2010, dated 2014)
